Results published in patent US10336788B2, “Inhibition of cardiac fibrosis in myocardial infarction” (Moerae Matrix, Inc., priority 2014, dated 2019).
No end group written: not given here.

Assays:
C57BL/6 mice = test: Conscious echocardiography of cardiac function after acute myocardial infarction (permanent LAD ligation)
From the text: Eight to ten week old C57BL/6 mice (25-30 g) were obtained from Charles River (Wilmington, Mass.) and maintained for at least 7 days with free access to standard rodent food and water. Myocardial infarction was induced by permanent ligation of the left anterior descending (LAD) coronary artery as described previously [Maejima Y, Kyoi S, Zhai P, Liu T, Li H, Ivessa A, et al. Mst1 inhibits autophagy by promoting the interaction between Beclin1 and Bcl-2. Nature Medicine. 2013; 19:1478-88; Qian L, Huang Y, Spencer C I, Foley A, Vedantham V, Liu L, et al. In vivo reprogramming of murine cardiac fibroblasts into induced cardiomyocytes. Nature. 2012; 485:593-8]. Post-surgery, mice were immediately treated with lidocaine (6 mg/kg IM) and atropine (0.04-0.10 mg/kg IM) upon surgical closure, followed by lidocaine and atropine every 2-4 hours for the first 24 hours to prevent arrhythmias. Post-anesthesia, mice were given 0.1 mg/kg buprenorphine every 12 hours for the first 48 hours. […] Cardiac function was measured by conscious echocardiography using a Vevo 2100 ultrasound biomicrscopy system (VisualSonics, Inc., Toronto, Canada) at baseline, 1, 7, and 14 days, as previously described [Oakley R H, Ren R, Cruz-Topete D, Bird G S, Myers P H, Boyle M C, et al. Essential role of stress hormone signaling in cardiomyocytes for the prevention of heart disease. Proc Natl Acad Scie USA. 2013; 110:17035-40; Willis M S, Homeister J W, Rosson G B, Annayev Y, Holley D, Holly S P, et al. Functional redundancy of SWI/SNF catalytic subunits in maintaining vascular endothelial cells in the adult heart. Circulation Res. 2012; 111:e111-22; Willis M S, Schisler J C, Li L, Rodriguez J E, Hilliard E G, Charles P C, et al. Cardiac muscle ring finger-1 increases susceptibility to heart failure in vivo. Circulation Res. 2009; 105:80-8].
Echocardiography was used to follow cardiac function and morphometry prior to the surgical induction of an acute myocardial infarction (AMI) induced by thoracotomy and ligation of the left anterior descending coronary artery in C57BL/6 mice. Cardiac function was then followed at 7 and 14 days post-AMI (FIG. 1A).

MK2 = test: Immunoblot analysis of MK2 activity (HNRNPA0, total MK2, p-MK2) in H9C2 cells; type: cell-based, rat
Description: Cells were rinsed in PMS and grown in DMEM (cat. #11966-025, Gibco) for 2 hours prior to initiating hypoxia (simulated ischemia). Hypoxia was induced by placing cells in a hypoxia chamber ([…] 150i, Thermo Scientific) in a mixture of 5% CO2/95% N2 to attain a 1% oxygen concentration, according to the manufacturer's instruction. […] The MMI-0100 peptide was added to the cells at the start of the ischemia time. Cells were cultured in 12 well plates. At the time of performing the experiments, all cultures were approximately 70-90% confluent. Three different time points were adopted for each of the three cell lines according to the severity of cell death under hypoxia determined by LDH release: for H9C2 cell line: 8 hr; 16 hr; 24 hr; for HL-1 cell line: 4 hr; 8 hr; 12 hr; for cardiac fibroblast cell line: 16 hr; 32 hr; 48 hr.
The left over cell lysates from the Caspase activity assay were used for the Western blots. […] After blocking with recommended blocking reagents for 1 h at the room temperature, the membranes were incubated overnight at 4° C. with primary antibodies in TBS-T, and then incubated with secondary antibodies conjugated with HRP in TBS-T. HNRNPA0, MAPK2, and phospho-MAPK2 proteins were detected using anti-HNRNPA0 (cat. #HPA036569, 1:1000, Sigma-Aldrich), anti-MAPKAPK2 (cat. #SAB4300553, Sigma-Aldrich), and anti-phospho-MAPKAPK2 (cat. #SAB4300241, 1:1000, Sigma-Aldrich). […]

[1] = system: 40 non-kinase enzyme assays, including phosphatases and proteases; test: Panel of 40 non-kinase enzyme assays; type: biochemical; details: 100 μM; data not shown

For YARAAARQARAKALARQLGVAA [MMI-0100], the “LV dilation: LVID; d decreased” value (C57BL/6 mice; AMI mice treated with MMI-0100, compared to sham, vs. 40% without MMI-0100) was 29%, the “LV dilation: LV Volume; d decreased” value (C57BL/6 mice; AMI mice treated with MMI-0100, compared to sham, vs. 130% without MMI-0100) was 88% and the “cardiac function compared to untreated AMI mice” value (C57BL/6 mice; AMI mice, 50 μg/kg/day intraperitoneally, first dose 30 minutes after LAD ligation, 1 and 2 weeks after AMI) was “significantly greater function”. For the same sequence, the “effect on cardiac function, MMI-0100 alone” value (C57BL/6 mice; mice without AMI, daily MMI-0100 intraperitoneally for 14 days) was “did not have any effect”, the HNRNPA0 expression (MK2; 100 μM, after induction by hypoxia) was “significantly inhibited” and the “total MK2 and p-MK2 protein levels” value (MK2; 20 or 100 μM, 1% hypoxia) was “not changed”. The “interaction at non-kinase enzyme targets (significant if greater than 50% inhibition of activity)” value [1] was “No significant interaction”.
